Laboratory results published in US20230086702A1, “SUBSTITUTED 2-AMINO-PYRAZOLYL-[1,2,4]TRIAZOLO[1,5A]PYRIDINE DERIVATIVES AND USE THEREOF” (The Johns Hopkins University, priority 2019, published 2023).
pIC50: −log10 of the molar value.

Tests used:
DLK = biological target: T1, DLK (Homo sapiens, UniProt Q12852); test: DLK biochemical assay (TR-FRET, MKK7 phosphorylation); conditions: DLK catalytic domain, MKK7 substrate, 60 μM ATP
T1 construct: 10 nM DLK, catalytic domain, Carna Biosiences; purchased Carna Biosciences ('Carna Biosiences' [sic])
T1 sequence (Q12852 125-366 limits assumed): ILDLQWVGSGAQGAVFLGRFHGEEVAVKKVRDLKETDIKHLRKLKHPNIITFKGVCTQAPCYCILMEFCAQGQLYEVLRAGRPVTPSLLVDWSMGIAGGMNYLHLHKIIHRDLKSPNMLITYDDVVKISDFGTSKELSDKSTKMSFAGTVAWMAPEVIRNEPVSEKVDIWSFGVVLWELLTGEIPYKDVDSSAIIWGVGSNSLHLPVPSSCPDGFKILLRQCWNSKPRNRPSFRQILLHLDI
How it was run: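 TR-FRET read-out (ratio of 665 nm acceptor to Eu donor channel) tracks MKK7 T275/S277 phosphorylation by DLK, using Eu-labelled anti-phospho-MKK7 and XL665-labelled anti-His on His-MKK7. Reactions were stopped and detected in pH 7.5 Tris buffer containing 100 mM EDTA, 100 mM NaCl, 200 mM KF and 0.01% Tween 20.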

LZK = biological target: T2, LZK (Homo sapiens, UniProt O43283); test: LZK biochemical assay (TR-FRET, MKK7 phosphorylation); conditions: LZK catalytic domain, MKK7 substrate, 15 μM ATP
T2 construct: 10 nM LZK, catalytic domain, Carna Biosiences in assay buffer; purchased Carna Biosciences ('Carna Biosiences' [sic])
T2 sequence (O43283 168-409 limits assumed): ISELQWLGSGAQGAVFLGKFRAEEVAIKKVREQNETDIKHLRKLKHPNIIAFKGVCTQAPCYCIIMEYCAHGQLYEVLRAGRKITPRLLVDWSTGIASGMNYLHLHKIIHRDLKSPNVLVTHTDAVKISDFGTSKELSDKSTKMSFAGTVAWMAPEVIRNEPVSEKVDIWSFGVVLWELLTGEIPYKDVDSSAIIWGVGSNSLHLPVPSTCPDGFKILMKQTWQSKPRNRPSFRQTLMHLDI

pIC50 (DLK) | pIC50 (LZK) | SMILES
7.60 | 7.40 | CC[C@H](C)NC(=O)c1cc(-c2cnn(Cc3ccc(C(F)(F)F)cc3)c2)cn2nc(N)nc12 (single isomer, unassigned) [Example I-46]
7.60 | 6.92 | CCC(c1ccc(N2CCOCC2)cc1)n1cc(-c2cc(C(=O)N[C@@H](C)CC)c3nc(N)nn3c2)cn1 (single isomer, unassigned) [Example I-48]
8.82 | 7.77 | CCC(c1ccc(N2CCOCC2)cc1)n1cc(-c2cc(C(=O)N[C@@H](C)CC)c3nc(N)nn3c2)cn1 (single isomer, unassigned) [Example I-49]
8.80 | 7.60 | CC[C@H](C)NC(=O)c1cc(-c2cnn(Cc3cccc4cn[nH]c34)c2)cc2nc(N)nn12 (single isomer, unassigned) [Example I-50]
9.15 | 8.25 | CC[C@H](C)NC(=O)c1cc(-c2cnn(C(c3ccccc3)C3CCOCC3)c2)cc2nc(N)nn12 (single isomer, unassigned) [Example I-52]
7.96 | 7.62 | CC[C@H](C)NC(=O)c1cc(-c2cnn(C(c3ccccc3)C3CCOCC3)c2)cc2nc(N)nn12 (single isomer, unassigned) [Example I-53]
8.72 | 8.07 | CC[C@H](C)NC(=O)c1cc(-c2cnn([C@@H](CC)c3ccc(F)cc3)c2)cc2nc(N)nn12 (single isomer, unassigned) [Example I-54]
8.57 | 7.72 | CCC(c1ccc(F)cn1)n1cc(-c2cc(C(=O)N[C@@H](C)CC)c3nc(N)nn3c2)cn1 (single isomer, unassigned) [Example I-56]
7.23 | 7.21 | CCC(c1ccc(F)cn1)n1cc(-c2cc(C(=O)N[C@@H](C)CC)c3nc(N)nn3c2)cn1 (single isomer, unassigned) [Example I-57]
7.70 | 7.24 | CCC(c1cncc(Cl)c1)n1cc(-c2cc(C(=O)N[C@@H](C)CC)c3nc(N)nn3c2)cn1 (single isomer, unassigned) [Example I-59]
8.43 | 8.05 | CC[C@H](C)NC(=O)c1cc(-c2cnn([C@@H](CC)c3cncc(Cl)c3)c2)cn2nc(N)nc12 (single isomer, unassigned) [Example I-60]
8.06 | 7.13 | CC[C@H](C)NC(=O)c1cc(-c2cnn(C(c3cncc(Cl)c3)C(C)C)c2)cn2nc(N)nc12 (single isomer, unassigned) [Example I-62]
9.40 | 8.28 | CC[C@H](C)NC(=O)c1cc(-c2cnn(C(c3cncc(Cl)c3)C(C)C)c2)cn2nc(N)nc12 (single isomer, unassigned) [Example I-63]
7.60 | 7.48 | CCC(c1ccc(C(F)F)nc1)n1cc(-c2cc(C(=O)N[C@@H](C)CC)c3nc(N)nn3c2)cn1 (single isomer, unassigned) [Example I-65]
9.10 | 8.39 | CCC(c1ccc(C(F)F)nc1)n1cc(-c2cc(C(=O)N[C@@H](C)CC)c3nc(N)nn3c2)cn1 (single isomer, unassigned) [Example I-66]
7.85 | 7.37 | CC[C@H](C)NC(=O)c1cc(-c2cnn(C(c3ccc(C(F)F)nc3)C(C)C)c2)cn2nc(N)nc12 (single isomer, unassigned) [Example I-68]
9.00 | 8.41 | CC[C@H](C)NC(=O)c1cc(-c2cnn(C(c3ccc(C(F)F)nc3)C(C)C)c2)cn2nc(N)nc12 (single isomer, unassigned) [Example I-69]
8.85 | 8.35 | CC[C@H](C)NC(=O)c1cc(-c2cnn([C@@H](CC)c3ccc(C(F)(F)F)nc3)c2)cn2nc(N)nc12 (single isomer, unassigned) [Example I-71]
8.00 | 7.80 | CC[C@H](c1ccc(C(F)(F)F)nc1)n1cc(-c2cc(C(=O)N[C@@H](C)CC)c3nc(N)nn3c2)cn1 (single isomer, unassigned) [Example I-72]
8.00 | 7.80 | CC[C@H](C)NC(=O)c1cc(-c2cnn(C(c3ccc(C(F)(F)F)nc3)C(C)C)c2)cn2nc(N)nc12 (single isomer, unassigned) [Example I-74]
8.96 | 8.62 | CC[C@H](C)NC(=O)c1cc(-c2cnn([C@H](c3ccc(C(F)(F)F)nc3)C(C)C)c2)cn2nc(N)nc12 (single isomer, unassigned) [Example I-75]

pIC50 (DLK) | pIC50 (LZK) | SMILES
8.23 | 8.16 | CC[C@H](C)NC(=O)c1cc(-c2cnn(C(c3ccc(C(F)(F)F)nc3)C3CCOCC3)c2)cn2nc(N)nc12 (single isomer, unassigned) [Example I-77]
9.15 | 8.77 | CC[C@H](C)NC(=O)c1cc(-c2cnn(C(c3ccc(C(F)(F)F)nc3)C3CCOCC3)c2)cn2nc(N)nc12 (single isomer, unassigned) [Example I-78]
9.05 | 9.30 | CC[C@H](C)NC(=O)c1cc(-c2cnn(C(c3ccc(C(F)(F)F)nc3)C3CCNCC3)c2)cn2nc(N)nc12 (single isomer, unassigned) [Example I-82]
9.52 | 9.15 | CC[C@H](C)NC(=O)c1cc(-c2cnn(C(c3ccc(C(F)(F)F)nc3)C3CCNCC3)c2)cn2nc(N)nc12 (single isomer, unassigned) [Example I-83]
7.00 | 6.80 | CCC(c1ccc(OCC(F)(F)F)nc1)n1cc(-c2cc(C(=O)N[C@@H](C)CC)c3nc(N)nn3c2)cn1 (single isomer, unassigned) [Example I-86]
8.89 | 7.80 | CCC(c1ccc(OCC(F)(F)F)nc1)n1cc(-c2cc(C(=O)N[C@@H](C)CC)c3nc(N)nn3c2)cn1 (single isomer, unassigned) [Example I-87]
6.64 | 5.70 | CC[C@H](C)NC(=O)c1cc(-c2cnn(C(c3ccc(OCC(F)(F)F)nc3)C(C)C)c2)cn2nc(N)nc12 (single isomer, unassigned) [Example I-89]
8.52 | 7.47 | CC[C@H](C)NC(=O)c1cc(-c2cnn(C(c3ccc(OCC(F)(F)F)nc3)C(C)C)c2)cn2nc(N)nc12 (single isomer, unassigned) [Example I-90]
8.19 | 8.20 | CCC(c1ccc(C(F)F)nc1)n1cc(-c2cc(C(=O)N[C@@H](C)CC)n3nc(N)nc3c2)cn1 (single isomer, unassigned) [Example I-93]
9.00 | 8.72 | CC[C@H](C)NC(=O)c1cc(-c2cnn([C@@H](CC)c3ccc(C(F)F)nc3)c2)cc2nc(N)nn12 (single isomer, unassigned) [Example I-94]
7.85 | 7.77 | CC[C@H](C)NC(=O)c1cc(-c2cnn(C(c3ccc(C(F)F)nc3)C(C)C)c2)cc2nc(N)nn12 (single isomer, unassigned) [Example I-96]
9.05 | 8.68 | CC[C@H](C)NC(=O)c1cc(-c2cnn([C@H](c3ccc(C(F)F)nc3)C(C)C)c2)cc2nc(N)nn12 (single isomer, unassigned) [Example I-97]
7.51 | 7.85 | CC[C@H](C)NC(=O)c1cc(-c2cnn(C(c3ccc(C(F)F)nc3)C3CC3)c2)cc2nc(N)nn12 (single isomer, unassigned) [Example I-99]
8.55 | 8.37 | CC[C@H](C)NC(=O)c1cc(-c2cnn(C(c3ccc(C(F)F)nc3)C3CC3)c2)cc2nc(N)nn12 (single isomer, unassigned) [Example I-100]
8.15 | 7.96 | CC[C@H](c1ccc(C(F)(F)F)nc1)n1cc(-c2cc(C(=O)N[C@@H](C)CC)n3nc(N)nc3c2)cn1 (single isomer, unassigned) [Example I-102]
9.10 | 8.62 | CC[C@H](C)NC(=O)c1cc(-c2cnn([C@@H](CC)c3ccc(C(F)(F)F)nc3)c2)cc2nc(N)nn12 (single isomer, unassigned) [Example I-103]
7.89 | 7.85 | CC[C@H](C)NC(=O)c1cc(-c2cnn(C(c3ccc(C(F)(F)F)nc3)C(C)C)c2)cc2nc(N)nn12 (single isomer, unassigned) [Example I-105]
7.55 | 7.77 | CC[C@H](C)NC(=O)c1cc(-c2cnn(C(c3ccc(C(F)(F)F)nc3)C3CC3)c2)cc2nc(N)nn12 (single isomer, unassigned) [Example I-108]
8.74 | 8.46 | CC[C@H](C)NC(=O)c1cc(-c2cnn([C@H](c3ccc(C(F)(F)F)nc3)C3CC3)c2)cc2nc(N)nn12 (single isomer, unassigned) [Example I-109]
9.30 | 8.85 | CC[C@H](C)NC(=O)c1cc(-c2cnn(C(c3ccc(C(F)(F)F)nc3)C3CCOCC3)c2)cc2nc(N)nn12 (single isomer, unassigned) [Example I-111]
